Like-named read-outs stand apart in the source and are kept apart here.
What was measured:
Aβ1-42 fibres = Aβ1-42 fibres (Homo sapiens, UniProt P05067); assay: In vitro inhibition of ThT binding and determination of Ki (fluorescence), Aβ1-42 fibres; conditions: vs Thioflavin T 500 nM; Aβ1-42 fibres 500 nM; PBS pH7.4, 1 h RT; read-out: Ki Aβ
Description: (§1) To obtain fiber assembly, α-syn is incubated in Tris-HCl 50 mM pH7.5, KCl 150 mM at 37° C. under continuous agitation during 4 days. The lyophilized Aβ1-42 was dissolved in 1,1,1,3,3,3-Hexafluoro-2-propanol (HFIP) at 0.2 mg/mL and incubated for 24 h at 37° C. to obtain the complete solubilization. The HFIP is evaporated under nitrogen stream to obtain a dry product. To start the fiber assembly, the dry peptide is resuspended in PBS pH7.4, 10% (v/v) DMSO and incubated at 37° C. for 3 days without agitation.
(§2) Protein fibers are systematically observed by electron microscopy (Jeol 1400). The images are recorded with a CCD camera (Gatan Orius). Finally, the percentage of α-syn and Aβ1-42 aggregated into fibers is checked on the pellet after centrifugation at 40000×g for 20 min and determination of the concentration of soluble protein/peptide remaining in the supernatant.
(§3) The samples are incubated for 1 h at room temperature (RT) to reach equilibrium. […] From each curve, the IC50 value is measured using the following equation: Y=min+(max−min)/1+([…])^slope

α-syn fibres = α-syn fibres (Homo sapiens (Human), UniProt P37840); assay: In vitro inhibition of ThT binding and determination of Ki (fluorescence), α-syn fibres; conditions: for Ki: vs Thioflavin T 500 nM, α-syn fibres 200 nM, PBS pH7.4, 1 h RT, read-out: Ki αsyn
Description: as §1, §2, §3

Tau fibres = Tau fibres (Homo sapiens (Human), UniProt P10636); assay: In vitro inhibition of ThT binding and determination of Ki (fluorescence), Tau fibres; conditions: for Tau selectivity according to analysis of Ki (Table 5): selective = good affinity and at least two times greater than for at least one of the two other proteins
Description: (§4) Tau protein in PBS buffer containing 1 mM DTT is assembled into fiber in the presence of one twelfth of a molar equivalent of heparin at 37° C. under stirring.
as §3

Aβ1-42 fibers [1] = target: Aβ1-42 fibers (Homo sapiens, UniProt P05067); assay: In vitro direct determination of Kd and Bmax by fluorescence, Aβ1-42 fibers; format: binding; conditions: for Aβ Bmax1: density of binding sites; for Aβ Bmax1 / Kd: direct fluorescence, Scatchard analysis; for Kd: Aβ1-42 fibers 500 nM, read-out: Aβ Kd1; for Aβ Bmax1 (number of sites/monomer): in brackets in the Bmax cell
Description: as §1
(§5) Fresh solutions of each test compound (2.5 mM in DMSO) are diluted in PBS pH=7.4 at concentrations between 0.5 nM and 5 μM in the presence or absence of α-syn (200 nM), Aβ1-42 (500 nM) or Tau (200 nM) fibers in a final 2 mL volume. After 1 h of incubation at RT, the binding of each compound to α-syn, A131-42 or Tau fibers is measured by fluorescence using the spectral changes of the compounds during their binding to the fibers, using the appropriate excitation/emission wavelengths (those giving the highest fluorescence variation during binding to the fibres). For each concentration of compound added to the fibres, the bound and free fractions are measured by fluorescence according to the following equation: Fm=FBB+FF×(T−B)
(§6) The value of FF is determined by measuring the fluorescence of known concentrations of compounds in the absence of fibres. The FB value is determined by measuring the maximum fluorescence of known concentrations of compounds in the presence of saturated concentrations of α-syn, Aβ1-42, or Tau fibers.
(§7) The values of B thus determined versus the concentrations of the free fractions (T-B) are analyzed according to the Michaelis-Menten equation. The affinity (Kd) and density of binding sites within the fibers of α-syn, Aβ1-42 or Tau (Bmax) are determined by Scatchard analysis, which also makes it possible to highlight multiple site classes.

α-syn fibers = α-syn fibers (Homo sapiens (Human), UniProt P37840); assay: In vitro direct determination of Kd and Bmax by fluorescence, α-syn fibers; format: binding; conditions: for αsyn Bmax1: density of binding sites; for αsyn Bmax1 / Kd: direct fluorescence, Scatchard analysis; for Kd: α-syn fibers 200 nM, read-out: αsyn Kd1; for αsyn Bmax1 (number of sites/monomer): in brackets in the Bmax cell
Description: as §1, §5, §6, §7

Tau fibers = Tau fibers (Homo sapiens (Human), UniProt P10636); assay: In vitro direct determination of Kd and Bmax by fluorescence, Tau fibers; format: binding; conditions: for Tau Bmax1: density of binding sites; for Tau Bmax1 / Kd: direct fluorescence, Scatchard analysis; for Kd: Tau fibers 200 nM, read-out: Tau Kd1; for Tau Bmax1 (number of sites/monomer): in brackets in the Bmax cell; for Tau selectivity according to analysis of Kd (Tables 6 and 7): selective = good affinity and at least two times greater than for at least one of the two other proteins
Description: Human Tau protein (isoform h2N4RTau) is expressed in the vector pET11d in E. Coli (strain BL21 (DE3), (Stratagene, La Jolla, Calif.)) and purified according to the described method (Barghorn S, Biernat J, Mandelkow E. (2005) Methods Mol Biol. 299:35-51). The Tau purified concentration is determined by measuring the absorbance at 280 nm using a molar extinction coefficient of 7450 M^−1 cm^−1.
as §4, §5
Where Fm is the fluorescence measured in the presence of fibers at a concentration T of the compound added to the fibers, FB is the specific fluorescence of the bound compound, FF is the specific fluorescence of the free compound, and B is the concentration of the fiber bound compound at a given concentration T (Bell, J. E., “Fluorescence; Solution Studies”, Spectrometry in Biochemistry, vol. I, Bell, J. E., ed., CRC Press, Inc., Boca Raton, Fla., pp. 155-194 (1981)).
as §6
Thus, at each point, the concentration of bound compound B is determined according to the following equation: B=(Fm−FF×T)/(FB−FF)
as §7

Aβ1-42 fibers [2] = assay: In vitro direct determination of Kd and Bmax by fluorescence, Aβ1-42 fibers; format: binding; conditions: selective = good affinity and at least two times greater than for at least one of the two other proteins
Description: as §1, §5, §6, §7

[3] = In vivo evaluation of fluorine-18-labelled tracer: PET/CT and tissue radioactivity (BBB crossing, bone fixation); conditions: healthy adult male Wistar rat, intravenous injection of 18F tracer
Description: The objective is to determine whether the tracer has the blood-brain barrier (BBB) crossing properties in sufficient quantities to be used as a PET imaging tracer. In addition, bone fixation can be qualified, which reflects the degree of defluorination of the tracer in vivo.
Animal Model: Adult male rats of Wistar strain.
In vivo study: the healthy animal receives an intravenous injection of the tracer test (molecule 28).
From the moment of injection, imaging is carried out using a dedicated system (PET/CT) which records the intracerebral accumulation of radioactivity (Sérrière et al. Nucl. Med. Biol. 2014, 41:103-13; Sérrière et al. Neurobiol. Aging 2015, 36:1639-52). At the end of the imaging, the animal is euthanized; the brain and a bone fragment (femur) are collected, weighed and their radioactivity is measured. This method allows to precisely quantify the accumulation of the tracer in the tissues. The results are expressed as a percentage of the injected tracer dose/g of tissue (% DI/g).

[4] = vs Thioflavin T 500 nM, Tau fibres 200 nM, PBS pH7.4, 1 h RT
[5] = selective = good affinity and at least two times greater than for at least one of the two other proteins

Chain of Tau fibers (P10636 other isoform, or with tags, fused parts or gaps): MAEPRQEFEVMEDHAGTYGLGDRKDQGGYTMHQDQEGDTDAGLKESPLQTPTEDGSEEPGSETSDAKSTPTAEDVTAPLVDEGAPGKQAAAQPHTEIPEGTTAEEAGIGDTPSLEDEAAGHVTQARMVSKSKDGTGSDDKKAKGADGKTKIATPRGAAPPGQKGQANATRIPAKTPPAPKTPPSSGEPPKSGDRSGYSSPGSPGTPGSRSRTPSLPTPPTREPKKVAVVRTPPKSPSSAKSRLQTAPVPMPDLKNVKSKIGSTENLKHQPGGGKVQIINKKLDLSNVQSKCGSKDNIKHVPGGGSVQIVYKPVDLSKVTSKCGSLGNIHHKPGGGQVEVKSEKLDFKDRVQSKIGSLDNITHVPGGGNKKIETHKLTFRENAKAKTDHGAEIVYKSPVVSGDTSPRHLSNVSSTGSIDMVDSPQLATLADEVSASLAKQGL
Chain of Tau fibres (P10636 other isoform, or with tags, fused parts or gaps): as above
Chain of Aβ1-42 fibres (P05067 672-713 limits assumed): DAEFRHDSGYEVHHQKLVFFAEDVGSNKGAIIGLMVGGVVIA
Chain of Aβ1-42 fibers (Homo sapiens, UniProt P05067) (P05067 672-713 limits assumed): as above

Compound | Ki (Aβ1-42 fibres) [nM] | Ki (α-syn fibres) [nM] | Ki (Tau fibres; [4]) [nM] | Aβ Bmax1 (Aβ1-42 fibers [1]) [nmol/μmol prot] | Kd (Aβ1-42 fibers [1]) [nM] | Aβ Bmax1 (number of sites/monomer) (Aβ1-42 fibers [1]) | αsyn Bmax1 (α-syn fibers) [nmol/μmol prot] | Kd (α-syn fibers) [nM] | αsyn Bmax1 (number of sites/monomer) (α-syn fibers) | Tau Bmax1 (Tau fibers) [nmol/μmol prot] | Kd (Tau fibers) [nM] | Tau Bmax1 (number of sites/monomer) (Tau fibers) | Aβ selectivity according to analysis of Kd (Tables 6 and 7) (Aβ1-42 fibers [2]) | Tau selectivity according to analysis of Kd (Tables 6 and 7) (Tau fibers) | Passing of the BBB: brain accumulation, percentage of injected tracer dose/g of tissue ([3]; brain collected at end of imaging) | binding to bone: femur accumulation, percentage of injected tracer dose/g of tissue ([3]; femur at end of imaging, reflects defluorination) [% DI/g] | α-syn selectivity according to analysis of Ki (Table 5) (α-syn fibres; [5]) | Ki (Tau fibres) [nM] | Tau selectivity according to analysis of Ki (Table 5) (Tau fibres) | α-syn selectivity according to analysis of Kd (Tables 6 and 7) (α-syn fibers; [5])
CC(=C(C#N)C#N)c1ccc2cc(N(C)CCF)ccc2c1 [FDDNP, reference compound] | 4.6 ± 3 | 25.1 ± 5 | 9.5 ± 1 | 10.2 ± 1 | 4.2 ± 1 | 1/100 | 39.5 ± 10 | 16.1 ± 6 | 1/25 | 138.5 ± 16 | 34.9 ± 6 | 1/7 |  |  |  |  |  |  |  | 
CNc1ccc(/C=C/c2ccc(OCCOCCOCCF)nc2)cc1 [AV45, reference compound] | 2.2 ± 1 | 76.6 ± 44 | 30.6 ± 9 | 3.33 ± 0.2 | 1.68 ± 0.2 | 1/300 | 27.9 ± 19 | 24.3 ± 20 | 1/35 | 92.0 ± 20 | 19.6 ± 5 | 1/11 |  |  |  |  |  |  |  | 
CN(CCF)c1ccc(C#Cc2cc3cccnc3[nH]2)cc1 [Compound 28, 4-((1H-Pyrrolo[2,3-b]pyridin-2-yl)ethynyl)-N-(2-fluoroethyl)-N-methylaniline] |  |  |  | 1.8 ± 0.6 | 1.2 ± 1 | 1/600 | 141.5 ± 45 | 2.4 ± 1 | 1/7 | 46.5 ± 5 | 0.97 ± 0.4 | 1/20 | selective | selective | ≈ 0.4 % DI/g | 0.3 |  |  |  | 
CN(C)c1ccc(C#Cc2cc3cccnc3[nH]2)cc1 [Compound 22a, 4-((1H-Pyrrolo[2,3-b]pyridin-2-yl)ethynyl)-N,N-dimethylaniline] | 24.5 ± 9 | 4.7 ± 2 |  | 3.04 ± 0.6 | 11.8 ± 3 | 1/300 | 69.5 ± 20 | 0.53 ± 0.2 | 1/14 | 93.0 ± 15 | 0.44 ± 0.1 | 1/10 |  | selective |  |  | selective | 4.61 ± 0.2 | selective | selective
CN(C)c1ccc(C#Cc2cc3ncccc3[nH]2)cc1 [Compound 22c, 4-((1H-Pyrrolo[3,2-b]pyridin-2-yl)ethynyl)-N,N-dimethylaniline] | 21.3 ± 7 | 26 ± 16 |  | 1.44 ± 0.6 | 2.9 ± 2 | 1/700 | 82.5 ± 5 | 3.25 ± 0.2 | 1/12 | 26.5 ± 5 | 0.13 ± 0.05 | 1/40 |  | selective |  |  |  | 12 ± 1 | selective | 
